Series [1] deals with T1, Peroxisome proliferator-activated receptor alpha (Homo sapiens, UniProt Q07869).
T1 sequence (Q07869 whole entry): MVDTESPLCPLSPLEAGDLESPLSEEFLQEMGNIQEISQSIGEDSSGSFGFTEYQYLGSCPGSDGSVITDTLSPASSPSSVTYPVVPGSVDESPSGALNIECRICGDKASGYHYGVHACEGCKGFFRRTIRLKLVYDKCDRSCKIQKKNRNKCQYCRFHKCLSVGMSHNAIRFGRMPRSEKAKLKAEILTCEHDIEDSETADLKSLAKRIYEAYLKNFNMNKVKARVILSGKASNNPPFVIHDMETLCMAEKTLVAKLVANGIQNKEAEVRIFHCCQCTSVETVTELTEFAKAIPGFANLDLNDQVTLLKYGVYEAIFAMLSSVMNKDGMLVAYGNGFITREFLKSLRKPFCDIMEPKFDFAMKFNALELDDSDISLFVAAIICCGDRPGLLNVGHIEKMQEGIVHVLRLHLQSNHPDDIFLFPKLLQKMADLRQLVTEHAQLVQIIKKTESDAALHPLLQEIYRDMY
Description: Agonist activity at human PPARalpha ligand binding domain expressed in human 293T cells co-transfected with Gal4-DBD by luciferase transactivation assay. The series is classed as cell-based. The note with it: read-out: EC50.

Series [2] concerns the target T2, Peroxisome proliferator-activated receptor gamma (Homo sapiens, UniProt P37231).
T2 sequence (P37231 whole entry): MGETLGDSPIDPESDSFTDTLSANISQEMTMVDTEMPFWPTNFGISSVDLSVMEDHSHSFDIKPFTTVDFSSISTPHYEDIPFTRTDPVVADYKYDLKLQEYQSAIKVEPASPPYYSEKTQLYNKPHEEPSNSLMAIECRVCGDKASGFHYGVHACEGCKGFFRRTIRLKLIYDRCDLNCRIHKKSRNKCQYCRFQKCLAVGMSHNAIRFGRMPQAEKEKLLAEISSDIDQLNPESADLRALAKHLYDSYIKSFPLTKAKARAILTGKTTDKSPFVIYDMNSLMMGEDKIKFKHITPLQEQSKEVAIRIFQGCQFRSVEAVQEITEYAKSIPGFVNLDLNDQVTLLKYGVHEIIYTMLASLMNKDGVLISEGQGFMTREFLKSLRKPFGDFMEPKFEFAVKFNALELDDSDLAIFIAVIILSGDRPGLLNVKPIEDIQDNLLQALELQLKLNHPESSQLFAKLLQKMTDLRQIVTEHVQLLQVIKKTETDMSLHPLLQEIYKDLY
The class given is cell-based, 293T. To be noted: read-out: EC50.

Series [3] concerns the target T3, Peroxisome proliferator-activated receptor alpha (Homo sapiens) (UniProt Q07869).
T3 sequence (whole entry): T1 sequence (Q07869 whole entry)
Description: Agonist activity at human PPARalpha ligand binding domain expressed in human 293T cells co-transfected with Gal4-DBD by luciferase transactivation assay relative to KRP297. The series is classed as cell-based.

Series [4] concerns Mus musculus. Description: Upregulation of UCP3 expression in C57BL/6 mouse at 10 mg/kg, po qd relative to control. The class given is functional.
Series [5] has as its system Mus musculus. Description: Upregulation of PDK4 expression in C57BL/6 mouse at 10 mg/kg, po qd relative to control. The series is classed as functional.
In series [6] the target is T4, Peroxisome proliferator-activated receptor delta (Homo sapiens, UniProt Q03181).
T4 sequence (Q03181 whole entry): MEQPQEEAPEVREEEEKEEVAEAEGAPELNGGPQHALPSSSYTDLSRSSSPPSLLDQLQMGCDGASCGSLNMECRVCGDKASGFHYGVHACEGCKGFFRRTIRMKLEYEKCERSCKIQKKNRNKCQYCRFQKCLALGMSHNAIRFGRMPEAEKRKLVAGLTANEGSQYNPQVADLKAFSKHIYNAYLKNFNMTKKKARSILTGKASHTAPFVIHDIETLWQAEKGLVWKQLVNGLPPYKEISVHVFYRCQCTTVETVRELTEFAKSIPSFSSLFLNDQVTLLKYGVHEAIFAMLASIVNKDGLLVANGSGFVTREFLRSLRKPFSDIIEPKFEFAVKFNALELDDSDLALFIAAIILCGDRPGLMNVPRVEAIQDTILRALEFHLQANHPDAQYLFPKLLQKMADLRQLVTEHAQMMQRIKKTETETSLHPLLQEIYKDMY

Series [7] has as its target T4, Peroxisome proliferator-activated receptor delta. This is another data set of the same source.
Series [8] is described as follows: Cmax in Balb/c mouse at 10 mg/kg, po qd. The note with it: in vivo.
A short description of series [9]: Half life in Balb/c mouse at 10 mg/kg, po qd. To be noted: in vivo.
Series [10] addresses Peroxisome proliferator-activated receptor delta (Homo sapiens) (UniProt Q03181). Description: Agonist activity at human PPARdelta by FRET assay.
A short description of series [11]: AUC ((0 to 24 hrs)) in Balb/c mouse at 10 mg/kg, po qd. To be noted: plasma.
Series [12] is described as follows: Oral bioavailability in Balb/c mouse at 10 mg/kg daily. The note with it: in vivo.

Each structure is given as a SMILES string. Some results are limits rather than exact numbers.

These results are taken from ChEMBL document CHEMBL1153748 (J Med Chem, 2010).

A word on the EC50: it is the concentration giving half of the maximal effect. One may read the Cmax as the maximum level reached in the sampled fluid or tissue. One may read the half-life as how long it takes for the measured level to halve. By AUC is commonly meant concentration integrated over time. Read a low AUC as low exposure.

With `Cc1cc(OCc2nc(-c3ccc(OC(C)C)cc3)c(-c3ccc(OC(F)(F)F)cc3)o2)ccc1OCC(=O)O`, the EC50 in [1] is 2.6 µM; in series [2] it was above 10 µM; in series [6] it was 0.003 µM; in [7], 0.013 µM; in series [10] it was 0.009 µM. This molecule came in with an Efficacy in series [3] of 43%. Besides, the “fold change (FC)” value in series [4] was found to be 2.2; in [5] it was 2.3. For the same molecule, the peak level in series [8] (Cmax) was 7.8 µM. The half-life in [9] was 5.1 h. This molecule also registered an AUC at 24 h in series [11] of 104 µM·h. For the same molecule, in series [12], the bioavailability was 129%.
For `Cc1cc(OCc2nc(-c3ccc(OC(C)C)nc3)c(-c3ccc(OC(F)(F)F)cc3)o2)ccc1OCC(=O)O`, the EC50 in series [1] was determined as 0.79 µM; in series [2], 70 µM; in [6], 2.49 µM; in series [7] it was 0.014 µM; in [10] it was 0.007 µM. In addition, the Efficacy in series [3] turned out to be 20%. Further, the “fold change (FC)” value in series [4] is reported as 2.5; in [5], 1.5. Further, in series [8], the Cmax stood at 9.1 µM. Besides, in series [9], the half-life was 5.3 h. In series [11], this molecule had an AUC at 24 h of 95.8 µM·h. In series [12], the bioavailability amounted to 144%.
`Cc1cc(OCc2nc(-c3cnc(OC(C)C)nc3)c(-c3ccc(OC(F)(F)F)cc3)s2)ccc1OCC(=O)O`: the EC50 was above 10 µM in series [1]; above 10 µM in series [2]; 0.006 µM in series [6]; 0.014 µM in series [7]; 0.01 µM in [10]. Also, the entries for the “fold change (FC)” value in [4] and in series [5] were 1.5 and 1.6, respectively. The highest level in [8] (Cmax) was 3.5 µM. The molecule also had a half-life in [9] of 2.3 h. The molecule also came in with an AUC at 24 h in [11] of 20.1 µM·h. In addition, the bioavailability in series [12] was 88%.
Regarding `Cc1cc(OCc2nc(-c3ccc(OC4CCCC4)cc3)c(-c3ccc(OC(F)(F)F)cc3)o2)ccc1OCC(=O)O`, the EC50 in series [1] is 0.91 µM; in series [2] it was above 10 µM; in series [6] it was 0.004 µM; in series [7], 0.012 µM; in [10], 0.009 µM. The same molecule registered an Efficacy in series [3] of 56%. The “fold change (FC)” value in [4] is on record as 2.5; in series [5], 2.1. The peak level in series [8] (Cmax) was 2.4 µM. For the same molecule, the half-life in series [9] was 3.1 h. In series [11], this molecule yielded an AUC at 24 h of 23.3 µM·h. Besides, the bioavailability in series [12] amounted to 35%.
Regarding `COc1ccc(-c2nc(COc3ccc(OCC(=O)O)c(C)c3)sc2-c2ccc(OC(F)(F)F)cc2)cn1`, the EC50 in series [1] was above 10 µM; in [2] it was above 10 µM; in series [6], 0.017 µM; in series [7], 0.012 µM; in series [10] it was 0.09 µM. For the same molecule, the “fold change (FC)” value was 2.5 in series [4] and 1.9 in [5]. For the same molecule, in series [8], the Cmax was determined as 17.3 µM. This molecule also gave a half-life in series [9] of 4.6 h. Besides, the AUC at 24 h in series [11] stood at 196 µM·h. In series [12], the bioavailability came to 140%.
